Measured values as given in patent US6479487B1, “6, 9-disubstituted 2-[trans-(4-aminocyclohexyl)amino] purines” (Aventis Pharmaceuticals Inc., priority 1998, dated 2002).
Several values for one entry are separate records, joined by “and”; a condition that tells them apart may be missing. Equal values may be shown once. Where a name gives a salt, the structure may show the parent alone. Read-outs that look alike come from different tables or passages of the source.

Legend:
HT-29 = assay: In vitro tumor cell proliferation, HT-29; assay type: cell-based, human; conditions: many values given with an undefined *, read-out: In vitro Tumor Cell Proliferation (IC50, μM) Colon HT-29
Procedure, shortened: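 Growth was quantified either with CyQUANT, plates frozen at −80° C after 3 days of drug, or by sulforhodamine B staining of TCA-fixed cells after 3 days of drug plus 4 days with fresh drug. Trypan blue-excluding HT-29 cells were plated overnight at 37° C before dosing.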

PC-3 = assay: In vitro tumor cell proliferation, PC-3; assay type: cell-based, human; conditions: many values given with an undefined *, read-out: In vitro Tumor Cell Proliferation (IC50, μM) Prostate PC-3
Procedure, shortened: (§1)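 Tumor cells were seeded overnight at 37° C, then exposed to drug diluted in culture medium for 3 days, refed with fresh drug-containing medium and kept 4 more days. Cells were fixed with 10% trichloroacetic acid and stained with 0.4% sulforhodamine B; alternatively, CyQUANT read proliferation after 3 days' drug exposure.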

HCT-15 = assay: In vitro tumor cell proliferation, HCT-15; assay type: cell-based, human; conditions: Homo sapiens, HCT-15, HCT-15; read-out: In vitro Tumor Cell Proliferation (IC50, μM) Colon HCT-15
Method: The proliferation of tumor cells was measured using a sulforhodamine B assay as described in Skehan, P., et al., J. Natl. Cancer Inst. […] Tumor cells were harvested with trypsin-EDTA, cells that excluded trypan blue were counted, added to 96-well plates and incubated overnight at 37° C. Drug was added to the wells following dilution in culture medium. Three days later, the medium was removed and replenished with medium containing fresh drug and incubated an additional 4 days. The cells were then fixed with 0.1 ml 10% trichloroacetic acid for 60 min at 4° C. The plates were rinsed five times with tap water, air-dried and stained for 30 min with 0.4% sulforhodamine B in 1% acetic acid and air-dried.
Alternatively, the CyQUANT cell proliferation assay was used to quantitate cell proliferation.
Alternatively, the CyQUANT cell proliferation assay was used to quantify tumor cell proliferation. Tumor cells were harvested with trypsin-EDTA, cells that excluded trypan blue were counted, added to 96-well plates and incubated overnight at 37° C. Drug was added to the wells following dilution in culture medium. Three days later the medium was removed and the plates frozen at −80° C. for at least 30 minutes.

DMS-114 = assay: In vitro tumor cell proliferation, DMS-114; assay type: cell-based, human; conditions: many values given with an undefined *, read-out: In vitro Tumor Cell Proliferation (IC50, μM) Lung DMS-114
Procedure, shortened: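 Human small cell lung carcinoma DMS-114 cells plated overnight, then drug-treated for 3 days, medium and drug renewed, and incubated 4 more days. Growth read by sulforhodamine B staining after TCA fixation; alternatively by CyQUANT after 3 days' drug exposure and freezing at −80 °C.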

A549 = assay: In vitro tumor cell proliferation, A549; assay type: cell-based, human; conditions: many values given with an undefined *, read-out: In vitro Tumor Cell Proliferation (IC50, μM) Lung A549
Procedure, shortened: as §1

cdk2/cyclin E = target: T1, cdk2/cyclin E (Homo sapiens, UniProt P24941); assay: Cyclin-Dependent Kinase 2 Assay (cdk2/cyclin E, GST-Rb substrate); assay type: biochemical; conditions: recombinant cdk2/cyclin E, 10 μM ATP, 30 min at 30° C., several values in a cell = separate determinations, read-out: CDK-2 Inhibition IC50
T1 construct: made in house; host or cells: insect cells (baculovirus co-infection)
Method: Substrate: GST-Rb as described above for cdk4/cyclin D1
Assay conditions for cdk2/cyclin E were identical to those for cdk4/cyclin D1 including the substrate. The concentration of recombinant cdk2/cyclin E in the assay was 0.1 μg per 100 μl assay. Incubation was for 30 min at 30° C.

MDA-MB-231 = assay: In vitro tumor cell proliferation, MDA-MB-231; assay type: cell-based, human; conditions: sulforhodamine B or CyQUANT assay, many values given with an undefined *, read-out: In vitro Tumor Cell Proliferation (IC50, μM) Breast MDA-MB-231
Procedure, shortened: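 Proliferation quantified by SRB staining of TCA-fixed cells after 3 days of drug plus 4 days with replenished drug, following overnight attachment at 37 °C.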

DU145 = assay: In vitro tumor cell proliferation, DU145; assay type: cell-based, human; conditions: many values given with an undefined *, read-out: In vitro Tumor Cell Proliferation (IC50, μM) Prostate DU145
Procedure, shortened: as §1

cdk4/cyclin D1 = target: T2, cdk4/cyclin D1 (Homo sapiens, UniProt P11802); assay: Cyclin-dependent Kinase 4 Assay (cdk4/cyclin D1, GST-Rb substrate); assay type: biochemical; conditions: cdk4/cyclin D1 insect cell lysate, 10 μM ATP, 30 min at 37° C., several values = separate determinations, read-out: CDK4 Inhibition IC50
T2 construct: made in house; host or cells: Sf9 insect cells (Bac-to-Bac baculovirus, pFastBac)
Procedure, shortened: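 IC50 against cdk4 measured by scintillation counting of bead-bound GST-Rb (0.5 μg) after filtration and four TNEN washes. Reaction was 30 min at 37 °C in HEPES pH 7.5 buffer with 10 mM MgCl2 and 1 mM EGTA. Enzyme source was 0.1 μg Sf9 lysate coinfected with cdk4 and cyclin D1.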

Colo-205 = assay: In vitro tumor cell proliferation, Colo-205; assay type: cell-based; conditions: values given with an undefined *, read-out: In vitro Tumor Cell Proliferation (IC50, μM) Colon Colo-205
Procedure, shortened: as §1

MDA-MB-435 = assay: In vitro tumor cell proliferation, MDA-MB-435; assay type: cell-based; conditions: values given with an undefined *, read-out: In vitro Tumor Cell Proliferation (IC50, μM) Breast MDA-MB-435
Procedure, shortened: as §1

[1] = Homo sapiens, MDA-MB-231, MDA-MB-231
[2] = Homo sapiens, COLO 205, Colo-205
[3] = Homo sapiens, MDA-MB-435, MDA-MB-435

T2 sequence (P11802 whole entry): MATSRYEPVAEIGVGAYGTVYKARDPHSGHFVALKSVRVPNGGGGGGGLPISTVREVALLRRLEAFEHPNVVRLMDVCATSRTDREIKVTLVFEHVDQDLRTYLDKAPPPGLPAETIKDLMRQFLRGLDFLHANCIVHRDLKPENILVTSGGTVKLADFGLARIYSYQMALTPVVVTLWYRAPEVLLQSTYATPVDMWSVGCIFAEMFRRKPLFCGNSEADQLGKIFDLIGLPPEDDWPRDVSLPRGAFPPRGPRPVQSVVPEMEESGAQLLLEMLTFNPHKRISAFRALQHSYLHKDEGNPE
T2 sequence (P24385 whole entry partner): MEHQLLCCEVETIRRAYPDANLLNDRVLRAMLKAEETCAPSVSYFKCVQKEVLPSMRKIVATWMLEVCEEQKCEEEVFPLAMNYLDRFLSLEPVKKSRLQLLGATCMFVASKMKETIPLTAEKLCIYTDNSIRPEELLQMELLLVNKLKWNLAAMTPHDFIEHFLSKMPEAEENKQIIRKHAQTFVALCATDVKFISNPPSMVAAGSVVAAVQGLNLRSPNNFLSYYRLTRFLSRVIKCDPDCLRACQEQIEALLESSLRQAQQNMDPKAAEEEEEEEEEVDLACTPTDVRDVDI

Compound | IC50 (HT-29; Homo sapiens, HT-29, HT-29) [µM] | IC50 (PC-3; Homo sapiens, PC-3, PC-3) [µM] | IC50 (DMS-114; Homo sapiens, DMS-114, DMS-114) [µM] | IC50 (A549; Homo sapiens, A549, A549) [µM] | IC50 (cdk2/cyclin E) | IC50 (MDA-MB-231; [1]) [µM] | IC50 (DU145; Homo sapiens, DU-145, DU145) [µM] | IC50 (cdk4/cyclin D1) | IC50 (HT-29; HT-29, trihydrochloride) | IC50 (PC-3; PC-3, trihydrochloride) | IC50 (Colo-205; Colo-205, trihydrochloride) | IC50 (Colo-205; [2]) [µM] | IC50 (DMS-114; DMS-114, trihydrochloride) | IC50 (A549; A549, trihydrochloride) | IC50 (MDA-MB-231; MDA-MB-231, trihydrochloride) | IC50 (DU145; DU145, trihydrochloride) | IC50 (MDA-MB-435; [3]) [µM] | IC50 (MDA-MB-435; MDA-MB-435, trihydrochloride) | IC50 (cdk4/cyclin D1; trihydrochloride) | IC50 (cdk2/cyclin E; trihydrochloride) | also measured
COc1ccc(CNc2nc(N[C@H]3CC[C@H](N)CC3)nc3c2ncn3C2CCCC2)c(OC)c1 [Example 17, 2-[Trans-(4-aminocyclohexyl)amino]-6-[(2,4-dimethoxybenzyl)amino]-9-cyclopentylpurine dihydrochloride] | 6.8 | 4 | 5.3 | 6.8 | 350 nM | 6.1 | 3.6 | – | – | – | – | – | – | – | – | – | – | – | – | – | IC50 (HCT-15): 9.9 µM; IC50 (DMS-114; DMS-114, dihydrochloride): 5.8 µM; IC50 (A549; A549, dihydrochloride): 7.5 µM; IC50 (MDA-MB-231; MDA-MB-231, dihydrochloride): 7.9 µM; IC50 (DU145; DU145, dihydrochloride): 6.9 µM
N[C@H]1CC[C@H](Nc2nc(NC3CCN(Cc4c(F)cccc4F)CC3)c3ncn(C4CCCC4)c3n2)CC1 [Example 147-v, 2-[Trans-(4-aminocyclohexyl)amino]-6-[4-[1-(2,6-difluorobenzyl)]piperidinylamino]-9-cyclopentylpurine trihydrochloride] | 0.76 | 0.85 | 1.9 | 0.5 | 240 nM | 0.63 | 0.52 | 2000 nM and 3400 nM | 0.83 µM | 1.1 µM | 0.77 µM | 0.58 | 1.1 µM | 0.63 µM | 1.2 µM | 0.57 µM | 1 | 1.3 µM | – | – | –
N[C@H]1CC[C@H](Nc2nc(NC3CCN(Cc4cc(Cl)cc(Cl)c4)CC3)c3ncn(C4CCCC4)c3n2)CC1 [Example 147-w, 2-[Trans-(4-aminocyclohexyl)amino]-6-[4-[1-(3,5-dichlorobenzyl)]piperidinylamino]-9-cyclopentylpurine trihydrochloride] | 0.37 | 0.44 | 0.45 | 0.21 | 130 nM and 180 nM | 0.35 | 0.35 | 4000 nM and 2100 nM | 0.39 µM | 0.46 µM | – | 0.32 | – | – | 0.4 µM | 0.39 µM | 0.57 | 0.51 µM | – | – | –
N[C@H]1CC[C@H](Nc2nc(NC3CCN(Cc4ccc(Cl)cc4Cl)CC3)c3ncn(C4CCCC4)c3n2)CC1 [Example 147-x, 2-[Trans-(4-aminocyclohexyl)amino]-6-[4-[1-(2,4-dichlorobenzyl)]piperidinylamino]-9-cyclopentylpurine trihydrochloride] | 0.72 | 0.54 | 1 | 0.44 | 320 nM | 0.85 | 0.49 | 3800 nM and 3900 nM | 0.6 µM | 0.65 µM | 0.62 µM | 0.59 | 0.7 µM | 0.45 µM | 0.67 µM | 0.53 µM | 0.75 | 0.92 µM | – | – | –
Cc1ccc(CN2CCC(Nc3nc(N[C@H]4CC[C@H](N)CC4)nc4c3ncn4C3CCCC3)CC2)cc1Cl [Example 147-y, 2-[Trans-(4-aminocyclohexyl)amino]-6-[4-[1-(3-chloro-4-methylbenzyl)]piperidinylamino]-9-cyclopentylpurine trihydrochloride] | – | – | – | – | – | – | – | – | 0.41 µM and 0.38 µM | 0.35 µM and 0.46 µM | 0.32 µM and 0.35 µM | – | 0.4 µM and 0.45 µM | 0.16 µM and 0.29 µM | 0.34 µM and 0.35 µM | 0.33 µM and 0.35 µM | – | 0.47 µM and 0.55 µM | 5400 nM and 4800 nM | 510 nM and 670 nM | –
N[C@H]1CC[C@H](Nc2nc(NC3CCN(Cc4ccc(OC(F)(F)F)cc4)CC3)c3ncn(C4CCCC4)c3n2)CC1 [Example 147-z, 2-[Trans-(4-aminocyclohexyl)amino]-6-[4-[1-(4-trifluoromethoxybenzyl)]piperidinylamino]-9-cyclopentylpurine trihydrochloride] | – | – | – | – | – | – | – | – | 0.43 µM and 0.44 µM | 0.33 µM and 0.44 µM | 0.38 µM and 0.46 µM | – | 0.34 µM and 0.42 µM | 0.18 µM and 0.3 µM | 0.37 µM and 0.35 µM | 0.28 µM and 0.36 µM | – | 0.5 µM and 0.57 µM | 7900 nM and 5700 nM | 720 nM and 1000 nM | –
